One compound from patent publication US20180221319A1, “METHODS OF TREATING SEIZURE DISORDERS AND PRADER-WILLI SYNDROME” (Ovid Therapeutics Inc., priority 2017, published 2018) can be followed below.

The nature of one data set: in vivo. Conditions: plasma.
The nature of data set [1]: plasma pharmacokinetics (elimination half-life, Cmax, AUC versus dose). Conditions: dose range of 5 mg-500 mg.
Source text: (§1) “PK” refers to the pharmacokinetic profile. Cmax is defined as the highest plasma drug concentration estimated during an experiment (ng/ml). Tmax is defined as the time when Cmax is estimated (min). AUC0-∞ is the total area under the plasma drug concentration-time curve, from drug administration until the drug is eliminated (ng·hr/ml or g*hr/ml). The area under the curve is governed by clearance. Clearance is defined as the volume of blood or plasma that is totally cleared of its content of drug per unit time (ml/min).

Source text for in vivo: as §1

A word on the half-life: it is how long it takes for the measured level to halve. Higher therefore signals slow decline. In the data set “in vivo”, `N[C@H]1C[C@@H](C(=O)O)CC1=C(F)F` came in with a half-life of 4 to 6 h. Besides, in data set [1], the AUCs dose proportionality entry is “greater than proportional increase” and the Cmax dose proportionality result is listed as “increases in a dose proportional manner”.
